Source: ChEMBL document CHEMBL3217475, “INPHARMA-based identification of ligand binding site in fragment-based drug design” (Medchemcomm, 2012)

Assay: Inhibition of glycogen phosphorylase (unknown origin) by INPHARMA method
Design: species or system Homo sapiens

| IC50 [µM] | SMILES |
| --- | --- |
| 1 | CN1CC[C@H](c2c(O)cc(O)c3c(=O)cc(-c4ccccc4Cl)oc23)[C@H](O)C1 [ALVOCIDIB] |
| 100 | Cn1c(=O)c2c(ncn2C)n(C)c1=O [CAFFEINE] |
